Key:
MINK/MINK1 = target: T1, MINK/MINK1 (Homo sapiens, UniProt Q8N4C8); test: Kinase inhibition assay (HotSpot), MINK/MINK1; format: biochemical; settings: 10 μM ATP, 10-dose IC50 mode; read-out: Compound IC50 (M) MINK/MINK1
T1 construct: purchased Reaction Biology Corp

[1] = test system: TGF-β-induced IL-11 in primary human parenchymal fibroblast cells (pFbs); test: Human parenchymal fibroblast cell assay, TGF-β-induced IL-11 (ELISA); format: cell-based; settings: compounds 0.1-10 μM 30 min prior to TGF-β1, 16-24 hours, 4.00* is assigned to compounds that failed to cause 50% or more inhibition at 10 µM, read-out: pIC50 IL-11 suppression (converted)
Procedure: Human Parenchymal Fibroblast Cell Assay
Primary human parenchymal fibroblast cells (pFbs) were cultured from parenchyma of lung resection specimens and from non-transplanted lungs of donors without chronic respiratory disease. pFbs were passaged in Dulbecco's Modified Eagle's Media (DMEM) containing 10% (v/v) heat-inactivated fetal calf serum (FCS), 15 mM HEPES, 0.2% (v/v) sodium bicarbonate, 2 mM L-glutamine, 1% (v/v) non-essential amino acids, 1% (v/v) sodium pyruvate, 2.5 μg/mL amphotericin, 5 IU/mL penicillin and 50 μg/mL streptomycin. In some experiments the human lung fibroblast cell line, MRC5 (sourced from ATTC) was used as indicated. The MRC5 line was maintained under the same conditions as described for the pFb.
Prior to experimentation, pFb were incubated in serum-free DMEM containing 0.25% bovine serum albumin (BSA) and insulin-transferrin-selenium-containing supplement (Monomed A; CSL, Parkville, Melbourne, Australia). The cells were incubated with small molecular CK1δ inhibitors (0.1-10 μM) for 30 min prior to […] TGF-β1 (R&D Systems, Minneapolis, Minn.) and the incubation continued for 16-24 hours prior to harvest of supernatant for detection of immunoreactive IL-11. Stock solutions were made as 10 mM in 100% DMSO and diluted to the required concentration in medium containing 0.1% DMSO (final concentration).
Supernatants were collected for measurement of IL-11 (R&D DuoSet, DY218) by ELISA following the manufacturers' instructions. Generally, capture antibodies were initially diluted to the recommended concentrations using PBS buffer, and then used to coat the wells of 96-well microplates (Greiner, #655061) by adding 50 μL/well and incubated overnight at room temperature. Next day, solutions were discarded and wells were washed 3 times with wash buffer (PBS containing 0.1% (v/v) Tween-20) prior to the addition of 200 μL of blocking solution (PBS containing 1% (v/v) BSA) for 1 hour to block non-specific sites. Plates were then washed 3 times with wash buffer and 50 μL of samples or standards were then added to wells and incubated for 2 hours at room temperature. After the incubation, plates were washed 3 times with wash buffer and 50 μL of detection antibodies were added to wells and incubated for 2 hours at room temperature. Plates were then washed 3 times before adding streptavidin-conjugated horseradish peroxidase (at the recommended concentrations) for 45 min. Plates were then washed 5 times with wash buffer and 100 μL TMB substrate solution (equal parts A and B, BD Biosciences) was added to each well until sufficient signals emerged. The reactions were inactivated by adding 100 μL sulphuric acid (2M H2SO4). The absorbance was measured at 450 nm using the Multiskan Ascent® plate reader. The absorbance of the cytokine standards was fitted to a logistic equation, allowing the concentrations of cytokine in samples to be determined.
PIC50 values (the negative log of the concentration suppressing IL-11 level by 50%) for inhibition of TGF-β-induced IL-11 were interpolated from the linear regression of log concentration small molecule versus IL-11 level (Table 4 and FIG. 2).

ERBB4/HER4 = target: T2, ERBB4/HER4 (Homo sapiens, UniProt Q15303); test: Kinase inhibition assay (HotSpot), ERBB4/HER4; format: biochemical; settings: 10 μM ATP, 10-dose IC50 mode; read-out: Compound IC50 (M) ERBB4/HER4
T2 construct: purchased Reaction Biology Corp

[2] = format: in vitro ADME, mouse
Procedure: Incubation: The metabolic stability assay was performed by incubating each test compound in human liver microsomes at 37° C. and a protein concentration of 0.4 mg/mL. The metabolic reaction was initiated by the addition of an NADPH-regenerating system and quenched at various time points over a 60 minute incubation period by the addition of acetonitrile containing diazepam as internal standard. Control samples (containing no NADPH) were included (and quenched at 2, 30 and 60 minutes) to monitor for potential degradation in the absence of cofactor. The human liver microsomes used in this experiment were supplied by XenoTech, lot #1410230. Microsomal incubations were performed at a substrate concentration of 1 μM. Data analysis: Species scaling factors from Ring et al. (2011) JPharmSci, 100:4090-4110 were used to convert the in vitro CLint (μL/min/mg) to an in vivo CLint(mL/min/kg). Hepatic blood clearance and the corresponding hepatic extraction ratio (EH) were calculated using the well stirred model of hepatic extraction in each species, according to the “in vitro T1/2” approach described in Obach (1999) DrugMetab. Dispos. 27:1350-1359. The EH was then used to classify compounds as low(<0.3), intermediate (0.3-0.7), high (0.7-0.95) or very high (>0.95) extraction compounds. Predicted in vivo clearance values have not been corrected for microsomal or plasma protein binding. Species scaling calculations are based on two assumptions: 1) NADPH-dependent oxidative metabolism predominates over other metabolic routes (i.e. direct conjugative metabolism, reduction, hydrolysis, etc.), and; 2) rates of metabolism and enzyme activities in vitro are truly reflective of those that exist in vivo. […] [table]

T1 sequence (Q8N4C8 whole entry): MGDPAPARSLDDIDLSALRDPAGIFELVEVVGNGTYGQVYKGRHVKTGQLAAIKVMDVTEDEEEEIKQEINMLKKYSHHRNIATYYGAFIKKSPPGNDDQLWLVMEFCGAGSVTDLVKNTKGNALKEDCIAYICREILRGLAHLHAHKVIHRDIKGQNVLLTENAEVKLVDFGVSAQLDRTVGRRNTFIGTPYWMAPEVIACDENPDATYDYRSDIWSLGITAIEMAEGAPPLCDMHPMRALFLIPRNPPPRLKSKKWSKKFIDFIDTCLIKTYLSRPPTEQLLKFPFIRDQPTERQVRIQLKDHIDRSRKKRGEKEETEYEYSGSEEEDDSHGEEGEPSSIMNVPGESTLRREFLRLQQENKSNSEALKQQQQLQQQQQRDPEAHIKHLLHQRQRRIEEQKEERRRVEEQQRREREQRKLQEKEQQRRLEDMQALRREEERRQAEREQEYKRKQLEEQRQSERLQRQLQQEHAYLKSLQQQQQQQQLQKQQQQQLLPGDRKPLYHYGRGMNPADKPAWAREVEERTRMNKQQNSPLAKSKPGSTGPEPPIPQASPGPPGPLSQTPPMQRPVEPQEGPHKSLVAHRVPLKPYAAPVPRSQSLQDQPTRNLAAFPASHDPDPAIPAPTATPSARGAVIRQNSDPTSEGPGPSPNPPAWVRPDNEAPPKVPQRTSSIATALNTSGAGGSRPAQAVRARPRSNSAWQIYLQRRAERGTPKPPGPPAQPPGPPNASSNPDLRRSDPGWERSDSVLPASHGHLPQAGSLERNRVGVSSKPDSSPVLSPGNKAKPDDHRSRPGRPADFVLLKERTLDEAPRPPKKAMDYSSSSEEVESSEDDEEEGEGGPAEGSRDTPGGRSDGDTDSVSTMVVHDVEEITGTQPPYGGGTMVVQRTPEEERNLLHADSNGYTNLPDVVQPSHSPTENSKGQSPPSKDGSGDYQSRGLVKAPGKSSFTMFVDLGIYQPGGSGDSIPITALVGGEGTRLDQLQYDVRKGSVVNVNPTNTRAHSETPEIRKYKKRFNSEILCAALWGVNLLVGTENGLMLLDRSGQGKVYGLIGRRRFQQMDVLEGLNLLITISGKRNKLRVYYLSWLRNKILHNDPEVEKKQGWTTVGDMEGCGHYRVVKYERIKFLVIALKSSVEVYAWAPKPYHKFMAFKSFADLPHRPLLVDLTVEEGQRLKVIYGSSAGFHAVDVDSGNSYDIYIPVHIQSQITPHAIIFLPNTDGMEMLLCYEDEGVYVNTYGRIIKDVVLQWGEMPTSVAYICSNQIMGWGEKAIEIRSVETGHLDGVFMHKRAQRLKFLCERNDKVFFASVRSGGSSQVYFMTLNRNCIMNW
T2 sequence (Q15303 26-1308): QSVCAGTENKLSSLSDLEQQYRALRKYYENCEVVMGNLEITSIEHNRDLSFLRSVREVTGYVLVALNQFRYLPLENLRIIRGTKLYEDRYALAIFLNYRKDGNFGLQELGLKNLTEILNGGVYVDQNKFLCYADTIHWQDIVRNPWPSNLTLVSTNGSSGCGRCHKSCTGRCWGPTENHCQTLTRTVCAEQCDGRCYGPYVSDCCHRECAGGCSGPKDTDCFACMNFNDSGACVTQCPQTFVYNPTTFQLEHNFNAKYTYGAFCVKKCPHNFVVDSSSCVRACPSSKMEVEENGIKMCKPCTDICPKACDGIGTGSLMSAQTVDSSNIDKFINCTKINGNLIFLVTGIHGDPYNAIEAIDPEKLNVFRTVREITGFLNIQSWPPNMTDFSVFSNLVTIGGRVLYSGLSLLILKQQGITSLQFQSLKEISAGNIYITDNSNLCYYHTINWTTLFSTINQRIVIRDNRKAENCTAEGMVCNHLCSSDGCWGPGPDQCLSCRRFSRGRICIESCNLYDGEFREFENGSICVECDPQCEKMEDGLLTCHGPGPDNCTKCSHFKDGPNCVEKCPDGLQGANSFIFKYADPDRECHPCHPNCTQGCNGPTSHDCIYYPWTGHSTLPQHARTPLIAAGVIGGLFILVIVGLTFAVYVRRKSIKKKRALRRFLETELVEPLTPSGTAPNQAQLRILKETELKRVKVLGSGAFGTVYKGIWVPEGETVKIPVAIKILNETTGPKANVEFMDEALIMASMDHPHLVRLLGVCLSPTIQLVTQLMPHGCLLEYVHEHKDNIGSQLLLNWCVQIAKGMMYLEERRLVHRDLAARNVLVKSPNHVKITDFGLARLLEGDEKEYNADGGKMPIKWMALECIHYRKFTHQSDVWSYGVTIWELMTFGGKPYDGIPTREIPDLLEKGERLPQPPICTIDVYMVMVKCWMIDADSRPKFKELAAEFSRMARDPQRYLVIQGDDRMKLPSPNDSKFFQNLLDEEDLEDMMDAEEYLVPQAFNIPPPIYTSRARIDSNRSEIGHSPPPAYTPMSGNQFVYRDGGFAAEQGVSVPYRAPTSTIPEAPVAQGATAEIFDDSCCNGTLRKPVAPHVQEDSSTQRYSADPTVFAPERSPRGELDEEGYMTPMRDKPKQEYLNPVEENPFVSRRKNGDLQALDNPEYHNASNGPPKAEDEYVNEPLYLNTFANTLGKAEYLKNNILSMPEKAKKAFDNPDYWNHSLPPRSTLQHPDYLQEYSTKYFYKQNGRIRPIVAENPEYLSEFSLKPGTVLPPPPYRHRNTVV

IC50 (MINK/MINK1) | IC50 (ERBB4/HER4) | Predicted CLblood [2] | Predicted CLint, in vivo [2] | Predicted EH (hepatic extraction ratio) [2] | CLint, in vitro ([2]; mouse, microsomes) | T1/2 ([2]; mouse, microsomes) | SMILES | IC50 [1]
1.15e-06 M | 9.98e-06 M |  |  |  |  |  | Nc1nccc(-c2c(-c3ccc(F)cc3)ncn2C2CCC(F)(F)CC2)n1 [ZH3-138, 4-(1-(4,4-Difluorocyclohexyl)-4-(4-fluorophenyl)-1H-imidazol-5-yl)pyrimidin-2-amine] | 20 µM
 |  | 108 mL/min/kg | 1105 mL/min/kg | 0.90 | 428 μL/min/mg protein | 4 min | Nc1nccc(-c2c(-c3ccc(F)cc3)ncn2C2CCCCC2)n1 [PF670462, reference compound] | 
